Measurements: ChEMBL document CHEMBL1132261, “Pneumocystis carinii and Toxoplasma gondii dihydrofolate reductase inhibitors and antitumor agents: synthesis and biological activities of 2,4-diamino-5-methyl-6-[(monosubstituted anilino)methyl] pyrido[2,3-d]pyrimidines” (J Med Chem, 1999)
pIC50: −log10 of the molar value.

Assays:
[1] = molecular target: T1, Bifunctional dihydrofolate reductase-thymidylate synthase (Toxoplasma gondii, UniProt Q07422); test: Inhibition of dihydrofolate reductase (DHFR) from Toxoplasma gondii(tg)
T1 sequence (Q07422 whole entry): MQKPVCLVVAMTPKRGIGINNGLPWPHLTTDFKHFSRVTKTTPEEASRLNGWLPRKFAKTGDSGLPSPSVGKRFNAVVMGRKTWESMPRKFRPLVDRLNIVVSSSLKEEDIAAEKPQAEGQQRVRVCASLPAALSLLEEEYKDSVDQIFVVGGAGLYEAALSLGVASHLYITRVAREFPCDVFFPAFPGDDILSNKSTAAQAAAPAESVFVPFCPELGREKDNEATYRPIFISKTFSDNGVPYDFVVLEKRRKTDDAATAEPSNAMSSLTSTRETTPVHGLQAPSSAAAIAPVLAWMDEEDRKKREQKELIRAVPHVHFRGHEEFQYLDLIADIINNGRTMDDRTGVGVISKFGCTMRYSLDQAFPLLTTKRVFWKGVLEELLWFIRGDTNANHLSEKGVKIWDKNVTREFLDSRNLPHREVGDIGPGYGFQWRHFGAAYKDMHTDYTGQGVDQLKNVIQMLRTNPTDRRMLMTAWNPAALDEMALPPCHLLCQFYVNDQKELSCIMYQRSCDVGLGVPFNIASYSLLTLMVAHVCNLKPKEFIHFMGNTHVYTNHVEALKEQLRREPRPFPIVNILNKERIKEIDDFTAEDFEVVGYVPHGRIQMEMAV

[2] = molecular target: T2, Dihydrofolate reductase (Pneumocystis carinii, UniProt P16184)
T2 sequence (P16184 whole entry): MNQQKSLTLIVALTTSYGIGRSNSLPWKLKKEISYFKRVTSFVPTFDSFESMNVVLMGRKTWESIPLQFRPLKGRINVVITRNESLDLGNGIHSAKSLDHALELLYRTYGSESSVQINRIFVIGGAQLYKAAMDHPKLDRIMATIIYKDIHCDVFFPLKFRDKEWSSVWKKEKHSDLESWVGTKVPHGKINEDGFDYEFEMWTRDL
Description: Inhibition of dihydrofolate reductase (DHFR) from Pneumocystis carinii(pc)

[3] = molecular target: T3, Dihydrofolate reductase (Rattus norvegicus, UniProt Q920D2)
T3 sequence (Q920D2 whole entry): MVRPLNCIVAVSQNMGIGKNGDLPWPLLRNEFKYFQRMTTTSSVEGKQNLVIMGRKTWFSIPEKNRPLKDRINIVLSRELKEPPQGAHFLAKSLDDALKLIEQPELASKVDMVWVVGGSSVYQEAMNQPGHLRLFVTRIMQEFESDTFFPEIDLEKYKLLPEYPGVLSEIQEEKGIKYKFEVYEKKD
Description: Inhibition of dihydrofolate reductase (DHFR) from rat liver (rl)

[4] = Log Ko/w value by LOGKOW program.; assay type: ADME; details: octanol/water; read-out: Log Ko/w
[5] = test system: Toxoplasma gondii; test: Inhibitory concentration of cell growth from Toxoplasma gondii; assay type: functional, organism-based
[6] = The compound was tested for ratio of inhibition of cell growth and dihydrofolate reductase(DHFR); assay type: functional
[7] = The compound was tested for ratio of inhibition of dihydrofolate reductase(DHFR) from rat(rl) liver and Pneumocystis carinii(pc)
[8] = The compound was tested for ratio of inhibition of dihydrofolate reductase(DHFR) from rat(rl) liver and Toxoplasma gondii(tg)

SMILES | pIC50 [2] | pIC50 [3] | logP [4] | Ratio [7] | pIC50 [1] | pIC50 [5] | Ratio [6] | Ratio [8]
COc1ccccc1NCc1cnc2nc(N)nc(N)c2c1C | 6.93 | 6.77 | – | – | 7.64 | – | – | –
COc1cc(N(C)Cc2cnc3nc(N)nc(N)c3c2C)cc(OC)c1OC | – | – | 1.76 | – | – | – | – | –
COc1cccc(NCc2cnc3nc(N)nc(N)c3c2C)c1 | 7.16 | 7.10 | 2.14 | – | 8.13 | 6.43 | 50 | –
Cc1c(CNc2ccccc2)cnc2nc(N)nc(N)c12 | 7.10 | 6.77 | 1.79 | – | 7.77 | 6.50 | 19 | –
COc1ccc(N(C)Cc2cnc3nc(N)nc(N)c3c2C)cc1OC | – | – | – | 0.1 | – | – | – | 1.5
Cc1c(CN(C)c2ccccc2Cl)cnc2nc(N)nc(N)c12 | 7.08 | 7.00 | – | – | 7.74 | – | – | –
COc1ccc(OC)c(N(C)Cc2cnc3nc(N)nc(N)c3c2C)c1 | – | – | 2.42 | – | – | – | 35 | –
Cc1c(CNc2ccccc2Cl)cnc2nc(N)nc(N)c12 | 7.33 | 7.06 | 2.35 | – | 8.15 | 7.24 | 8 | –
COc1ccc(NCc2cnc3nc(N)nc(N)c3c2C)cc1 | 7.02 | 7.25 | – | – | 7.92 | – | – | –

More lines, in order of rising pIC50 [3], values ahead:

pIC50 [2] | pIC50 [3] | logP [4] | Ratio [7] | SMILES | pIC50 [1] | pIC50 [5] | Ratio [6] | Ratio [8]
7.26 | 7.29 | – | – | Cc1c(CNc2ccc(Cl)cc2)cnc2nc(N)nc(N)c12 | 7.72 | – | – | –
– | 7.36 | – | – | COc1ccc(NCc2cnc3nc(N)nc(N)c3c2C)cc1OC | – | – | – | –
7.64 | 7.43 | – | – | Cc1c(CNc2cccc(Cl)c2)cnc2nc(N)nc(N)c12 | 7.96 | – | – | –
7.43 | 7.44 | – | – | Cc1c(CN(C)c2ccc(Br)cc2)cnc2nc(N)nc(N)c12 | 7.52 | – | – | –
7.09 | 7.46 | – | – | Cc1c(CNc2ccc(Br)cc2)cnc2nc(N)nc(N)c12 | 8.02 | – | – | –
7.54 | 7.59 | – | – | Cc1c(CN(C)c2ccc(Cl)cc2)cnc2nc(N)nc(N)c12 | 8.27 | – | – | –
7.52 | 7.74 | – | – | COc1cccc(N(C)Cc2cnc3nc(N)nc(N)c3c2C)c1 | 8.20 | – | – | –
7.46 | 7.89 | – | – | COc1ccc(N(C)Cc2cnc3nc(N)nc(N)c3c2C)cc1 | 8.14 | – | – | –
